48 compounds from patent EP1673349B1, “BENZIMIDAZOLE DERIVATIVES: PREPARATION AND PHARMACEUTICAL APPLICATIONS” (priority 2003, dated 2005) can be followed below.

Like-named read-outs stand apart in the source and are kept apart here.

One assay concerns the target HDAC8 enzyme. As to the kind of experiment: In vitro HDAC assay (BIOMOL fluorescent-based HDAC activity assay), HDAC8. As to conditions: Table 3; read-out: HDAC8 Enzyme Activity IC50. It is filed as biochemical, human.
In the next assay the test system is Colo205. As to the kind of experiment: Cell-based proliferation assay (cyquant), Colo205.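 Note: Colo205 cells exposed for 96 h to a range of compound concentrations, growth read by CyQUANT, GI50 taken from plotted dose-response curves.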 Further details: species or system human. The note with it: Table 4, 96 h treatment.
A further assay addresses HDAC1 enzyme (Homo sapiens, UniProt Q13547). Briefly: In vitro HDAC assay (BIOMOL fluorescent-based HDAC activity assay), HDAC1. It is filed as biochemical. As to conditions: Table 3; read-out: HDAC1 Enzyme Activity IC50.
For a further assay, the system named is MDA-MB435. As to the kind of experiment: Cell-based proliferation assay (cyquant), MDA-MB435.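 Note: GI50 taken from dose–response curves over a range of compound concentrations, with cell growth quantified by the CyQUANT proliferation assay.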 Further details: species or system human. The note with it: Homo sapiens, MDA-MB-435; Table 4; 96 h treatment.

HDAC1 enzyme, sequence (Q13547 whole entry): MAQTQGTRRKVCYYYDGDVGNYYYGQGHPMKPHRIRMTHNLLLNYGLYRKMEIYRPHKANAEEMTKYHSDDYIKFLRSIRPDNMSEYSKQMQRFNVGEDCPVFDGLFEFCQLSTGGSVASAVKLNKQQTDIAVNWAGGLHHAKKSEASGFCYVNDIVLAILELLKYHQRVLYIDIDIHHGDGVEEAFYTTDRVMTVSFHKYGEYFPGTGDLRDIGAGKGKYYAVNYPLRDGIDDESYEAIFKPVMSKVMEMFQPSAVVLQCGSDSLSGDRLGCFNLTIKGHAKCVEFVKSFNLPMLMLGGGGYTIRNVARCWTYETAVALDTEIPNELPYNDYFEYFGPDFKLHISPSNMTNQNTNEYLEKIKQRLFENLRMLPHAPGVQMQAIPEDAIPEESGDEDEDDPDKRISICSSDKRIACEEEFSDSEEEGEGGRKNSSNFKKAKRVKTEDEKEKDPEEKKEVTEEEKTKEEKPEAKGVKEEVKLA
Procedure for Colo205: (§1) Human colon cancer cell lines (Colo205 and HCT116), human breast cancer cell lines (MDA-MB435 and MDA-MB231), and human lung cancer cell line (A549) were obtained from ATCC. […] MDA-MB435 cells were cultivated in DMEM containing 2 mM L-Glutamine, 5% FBS. HCT116 cells were cultivated in IMEM containing 2 mM L-Glutamine, 5% FBS. A549 and Colo205 cells were seeded in 96-wells plate at 2000 and 5000 cells per well respectively. MDA-MB435, HCT116, MDA-MB231 cells were seeded in 96-wells plate at 6000 cells per well. The plates were incubated at 37°C, 5% CO2, for 24 h. Cells, were treated with compounds at various concentration for 96 h. Cell growth was then monitored using cyquant cell proliferation assay (Invitrogen Pte Ltd). Dose response curves were plotted to determine GI50 values for the compounds using XL-fist.
Procedure for HDAC1 enzyme: (§2) Expression of GST-HDAC1 or HTGST-HDAC8 was done by infecting SF9 cells (Invitrogen Pte Ltd) with pDEST20-HDAC1 or pFASTBAC-GST-HDAC8 baculovirus at MOI=1 for 48 h. Soluble cell lysate was incubated with pre-equilibrated Glutathione Sepharose 4B beads (Amersham) at 4°C for 2 h. The beads were washed with PBS buffer for 3 times. The GST-HDAC1 protein or GST-HDAC8 protein was eluted by elution buffer containing 50 mM Tris, pH8.0, 150mM NaCl, 1% Triton X-100 and 10mM or 20mM reduced Glutathione. The purified GST-HDAC1 protein or purified GST-HDAC8 protein was dialyzed with HDAC storage buffer containing 10mM Tris, pH7.5, 100mM NaCl and 3mM MgCl2. 20% Glycerol was added to purified GST-HDAC1 protein or purified GST-HDAC8 before storage at -80°C.
(§3) The assay has been carried, out in 96 well format and the BIOMOL fluorescent-based HDAC activity assay has been applied. […] Flur de lys Developer was added and the reaction was incubated for 10 min. Briefly, deacetylation of the substrate sensitizes it to the developer, which then generates a fluorophore (symbol). The fluorophore is excited with 360 nm light and the emitted light (460 nm) is detected on a fluorometric plate reader (Tecan Ultra Microplate detection system, Tecan Group Ltd.).
(§4) The analytical software, Prism 3.0 has been used to generate IC50 from a series of data.
Procedure for HDAC8 enzyme: as §2, §3, §4
Procedure for MDA-MB435: as §1

A word on the IC50: it is the concentration that inhibits the measured activity by half. For orientation: GI50 means the concentration giving 50% growth inhibition. On to `COc1ccc(-c2nc3cc(/C=C/C(=O)NO)ccc3n2CCO)cc1` [Compound 5, N-Hydroxy-3-[1-(2-hydroxy-ethyl)-2-(4-methoxy-phenyl)-1H-benzimidazole-5-yl]-acrylamide], for which the 50% inhibitory concentration (IC50) on HDAC8 enzyme worked out at 401 nM. The compound also gave a 50% growth inhibitory concentration (GI50) with Colo205 (Homo sapiens, COLO 205) of over 100000 nM. For `O=C(/C=C/c1ccc2c(c1)nc(CCc1ccccc1)n2CC(O)CO)NO` (stereo not drawn) [Compound 8], the IC50 at HDAC1 enzyme is 286 nM; at HDAC8 enzyme, 454 nM. Turning to `O=C(/C=C/c1ccc2c(c1)nc(-c1ccncc1)n2CCO)NO` [Compound 10, N-Hydroxy-3-[1-(2-hydroxy-ethyl)-2-(4-pyridyl)-1H-benzimidazol-5-yl]-acrylamide], on HDAC8 enzyme, the half-maximal inhibitory concentration (IC50) was found to be 883 nM. For the compound `O=C(/C=C/c1ccc2c(c1)nc(-c1ccccn1)n2CCCO)NO` [Compound 13, N-Hydroxy-3-[1-(3-hydroxy-propyl)-2-(2-pyridyl)-1H-benzimidazol-5-yl]-acylamide], the IC50 on HDAC1 enzyme worked out at 385 nM; on HDAC8 enzyme it was 141 nM. For `COCCCn1c(CCc2ccccc2)nc2cc(/C=C/C(=O)NO)ccc21` [Compound 15], in that order: 206 nM and 313 nM. As to `O=C(/C=C/c1ccc2c(c1)nc(CCc1ccccc1)n2CCc1ccccn1)NO` [Compound 18], the IC50 on HDAC1 enzyme came out at 438 nM; on HDAC8 enzyme, 290 nM.

For the compound `CC(C)Cc1nc2cc(/C=C/C(=O)NO)ccc2n1CCc1ccccn1` [Compound 22], the IC50 amounted to 1330 nM on HDAC1 enzyme and 234 nM on HDAC8 enzyme.

As for `O=C(/C=C/c1ccc2c(c1)nc(CCc1ccccc1)n2CCc1ccccc1)NO` [Compound 26, N-Hydroxy-3-(1,2-Diphenethyl-1H-benzimidazol-5-yl]-acylamide], the GI50 in the assay on Colo205 (Homo sapiens, COLO 205, 96 h) was 8790 nM; in the assay with MDA-MB435 it was 6670 nM. As to `O=C(/C=C/c1ccc2c(c1)nc(COCc1ccccc1)n2CCc1cccnc1)NO` [Compound 28], the IC50 at HDAC1 enzyme is 206 nM; on HDAC8 enzyme, 300 nM. For the compound `CC(C)Cc1nc2cc(CCC(=O)NO)ccc2n1CCCO` [Compound 29, N-Hydroxy-3-[1-(3-Hydroxy-propyl)-2-isobutyl-1H-benzimidazol-5-yl]-propionamide], the concentration for half-maximal inhibition (IC50) at HDAC1 enzyme was 49100 nM; at HDAC8 enzyme, 34000 nM.

With `O=C(O)CCn1c(CCc2ccccc2)nc2cc(/C=C/C(=O)NO)ccc21` [Compound 32, 3-[5-(2-Hydrocarbamoyl-vinyl)-2-phenethyl-benzimidazol-1-yl]-propionic acid], the IC50 on HDAC1 enzyme was 2210 nM; on HDAC8 enzyme it was 1890 nM. `CC(C)Cc1nc2cc(/C=C/C(=O)NO)ccc2n1Cc1ccccc1` [Compound 34, N-Hydroxy-3-(1-Benzyl-2-isobutyl-1H-benzimidazol-5-yl)-acrylamide]: the IC50 at HDAC8 enzyme turned out to be 846 nM. As to `CCCn1cnc2cc(/C=C/C(=O)NO)ccc21` [Compound 37, N-Hydroxy-3-(1-propyl-1H-benzimidazol-5-yl)-acrylamide], the GI50 came to 7820 nM with Colo205 (Homo sapiens, COLO 205) and 7900 nM in the assay on MDA-MB435. As for `CCn1c(CCc2ccccc2)nc2cc(/C=C/C(=O)NO)ccc21` [Compound 38, N-Hydroxy-3-(1-Ethyl-2-phenethyl-1H-benzimidazol-5-yl)-acrylamide], the GI50 turned out to be 1470 nM in the assay with Colo205 (Homo sapiens, COLO 205, 96 h) and 1530 nM with MDA-MB435. The matching figures for `CCn1cnc2cc(/C=C/C(=O)NO)ccc21` [Compound 39, N-Hydroxy-3-(1-Ethyl-1H-benzimidazol-5-yl)-acrylamide]: 11700 nM and 12000 nM. As to `O=C(NO)c1ccc2c(c1)nc(CCc1ccccc1)n2CCCO` [Compound 40, 1-(3-Hydroxy-prorpyl)-2-phenethyl-1H-benzimidazol-5-carboxylic acid hydroxyamide], the IC50 turned out to be 3300 nM at HDAC1 enzyme and 441 nM on HDAC8 enzyme. Regarding `CC(Cc1nc2cc(/C=C/C(=O)NO)ccc2n1CCc1cccnc1)c1ccccc1` (stereo not drawn) [Compound 41], the IC50 came out at 195 nM at HDAC1 enzyme and 159 nM at HDAC8 enzyme. Consider `O=C(/C=C/c1ccc2c(c1)ncn2CCc1ccccn1)NO` [Compound 42, N-Hydroxy-3-[1-(2-pyridin-2-yl-ethyl)-1H-benzimidazol-5-yl]-acrylamide], for which the 50% growth inhibitory concentration (GI50) worked out at 14400 nM in the assay with Colo205 (Homo sapiens, COLO 205) and 15800 nM in the assay with MDA-MB435. Regarding `CC(C)c1nc2cc(/C=C/C(=O)NO)ccc2n1CCCO` [Compound 46], the half-maximal inhibitory concentration (IC50) at HDAC1 enzyme is 1670 nM. Turning to `Cn1c(CCc2ccccc2)nc2cc(/C=C/C(=O)NO)ccc21` [Compound 48, N-Hydroxy-3-(1-methyl-2-phenethyl-1H-benzimidazol-5-yl)-acrylamide], the GI50 came to 1450 nM with Colo205 (Homo sapiens, COLO 205, 96 h) and 1780 nM in the assay on MDA-MB435.

Turning to `O=C(/C=C/c1ccc2[nH]c(CCc3ccccc3)nc2c1)NO` [Compound 50, N-Hydroxy-3-(2-phenethyl-1H-benzimidazol-5-yl)-acrylamide], the GI50 amounted to 4290 nM with Colo205 (Homo sapiens, COLO 205, 96 h) and 5190 nM in the assay on MDA-MB435. Take `Cn1c(CCCc2ccccc2)nc2cc(/C=C/C(=O)NO)ccc21` [Compound 52, N-Hydroxy-3-[1-methyl-2-(3-phenyl-propyl)-1H-benzimidazol-5-yl]-acrylamide]: the GI50 in the assay on Colo205 (Homo sapiens, COLO 205) stood at 2040 nM; with MDA-MB435 it was 3580 nM. For the compound `O=C(/C=C/c1ccc2c(c1)nc(CCc1ccccc1)n2CCCn1ccnc1)NO` [Compound 56, N-Hydroxy-3-[1-(-3-imidazol-1-yl-propyl)-2-phenethyl-1H-benzimidazol-5-yl]-acrvlamide], on HDAC1 enzyme, the half-inhibitory concentration (IC50) worked out at 158 nM. As to `CN(C)CCCCn1c(CCc2ccccc2)nc2cc(/C=C/C(=O)NO)ccc21` [Compound 57, N-Hydroxy-3-[1-(4-dimethylamino-butyl)-2-phenethyl-1H-benzimidazol-5-yl]-acrylamide], the GI50 in the assay on Colo205 (Homo sapiens, COLO 205, 96 h) amounted to 1110 nM; with MDA-MB435 it was 1390 nM. `Cn1c(CNCc2ccccc2)nc2cc(/C=C/C(=O)NO)ccc21` [Compound 60, N-Hydroxy-3-[2-(benzylamino-methyl)-1-methyl-1H-benzimidazol-5-yl]-acrylamide]: the concentration for 50% growth inhibition (GI50) in the assay on Colo205 (Homo sapiens, COLO 205) amounted to 2470 nM; with MDA-MB435, 3600 nM. For the compound `Cn1c(CN(Cc2ccccc2)Cc2ccccc2)nc2cc(/C=C/C(=O)NO)ccc21` [Compound 61], at HDAC1 enzyme, the IC50 was determined as 196 nM. The same measure, in the same setting: the same measure for `COc1ccc(CNCc2nc3cc(/C=C/C(=O)NO)ccc3n2C)cc1` [Compound 62]: 234 nM. Take `CN(C)CCCn1c(CCc2ccccc2)nc2cc(/C=C/C(=O)NO)ccc21` [Compound 63, N-Hydroxy-3-[1-(3-dimethylamino-propyl)-2-phenethyl-1H-benzimidazol-5-yl]-acrylamide]: the GI50 with Colo205 (Homo sapiens, COLO 205, 96 h) is 2000 nM. In the case of `CCN(CC)CCn1c(CCc2ccccc2)nc2cc(/C=C/C(=O)NO)ccc21` [Compound 66, N-Hydroxy-3-[1-(2-diethylamino-ethyl)-2-phenethyl-1H-benzimidazol-5-yl]-acrylamide], the IC50 on HDAC8 enzyme was 255 nM. Further, in the assay on Colo205 (Homo sapiens, COLO 205, 96 h), the 50% growth inhibitory concentration (GI50) stood at 220 nM. Consider `CCn1c(CN(Cc2ccccc2)Cc2ccccc2)nc2cc(/C=C/C(=O)NO)ccc21` [Compound 68], for which the concentration for half-maximal inhibition (IC50) at HDAC1 enzyme is 294 nM.

With `Cn1c(CNC(=O)Cc2ccc(F)cc2)nc2cc(/C=C/C(=O)NO)ccc21` [Compound 69], the IC50 at HDAC1 enzyme is 146 nM. For the compound `CCn1c(CCNC(=O)Cc2ccccc2)nc2cc(/C=C/C(=O)NO)ccc21` [Compound 70], the IC50 on HDAC1 enzyme came to 923 nM. The 50% growth inhibitory concentration (GI50) with Colo205 (read-out: GI50 (Colo 205)) was 2900 nM. Take `CCn1c(CCNS(=O)(=O)c2ccccc2)nc2cc(/C=C/C(=O)NO)ccc21` [Compound 71]: the IC50 at HDAC1 enzyme is 167 nM. As for `CCn1c(CCNC(=O)COc2ccccc2)nc2cc(/C=C/C(=O)NO)ccc21` [Compound 73], the half-maximal inhibitory concentration (IC50) on HDAC1 enzyme came to 560 nM. On to `CCn1c(CCNCc2ccccc2)nc2cc(/C=C/C(=O)NO)ccc21` [Compound 74, N-Hydroxy-3-[2-(2-benzylamino-ethyl)-1-ethyl-1H-benzimidazol-5-yl]-acrylamide], for which the 50% growth inhibitory concentration (GI50) with Colo205 (Homo sapiens, COLO 205) amounted to 2070 nM. As for `CC(C)(C)Cn1c(CCc2ccccc2)nc2cc(/C=C/C(=O)NO)ccc21` [Compound 75], in the assay with Colo205 (read-out: GI50 (Colo 205)), the 50% growth inhibitory concentration (GI50) was 2880 nM. For `O=C(/C=C/c1ccc2c(c1)nc(CCc1ccccc1)n2C1CCN(Cc2ccccc2)CC1)NO` [Compound 76], the concentration for half-maximal inhibition (IC50) on HDAC1 enzyme is 1030 nM. Same read-out and setting: in the case of `O=C(/C=C/c1ccc2c(c1)nc(CCc1ccccc1)n2CCO)NO` [Compound 77] it was 570 nM; in that of `O=C(/C=C/c1ccc2c(c1)nc(CCc1ccccc1)n2CCCCCO)NO` [Compound 78], over 100000 nM.

On to `C=CCn1c(CCc2ccccc2)nc2cc(/C=C/C(=O)NO)ccc21` [Compound 79], for which, at HDAC1 enzyme, the half-inhibitory concentration (IC50) came to 1260 nM. `CC(C)OCCCn1c(CCc2ccccc2)nc2cc(/C=C/C(=O)NO)ccc21` [Compound 80]: the 50% inhibitory concentration (IC50) on HDAC1 enzyme is 1690 nM. Regarding `CN1CCN(CCCn2c(CCc3ccccc3)nc3cc(/C=C/C(=O)NO)ccc32)CC1` [Compound 81], the IC50 on HDAC1 enzyme was determined as 1600 nM. As to `O=C(/C=C/c1ccc2c(c1)nc(CCc1ccccc1)n2CCCN1CCCC1)NO` [Compound 82, N-Hydroxy-3-[2-phenethyl-1-(3-pyrrolidin-1-yl-propyl)-1H-benzimidazol-5-yl]-acrylamide], the 50% growth inhibitory concentration (GI50) in the assay on Colo205 (Homo sapiens, COLO 205, 96 h) turned out to be 720 nM. For `CN(C)CC(C)(C)Cn1c(CCCc2ccccc2)nc2cc(/C=C/C(=O)NO)ccc21` [Compound 83], at HDAC1 enzyme, the concentration for half-maximal inhibition (IC50) amounted to 71 nM. The same measure, in the same setting: in the case of `CN(C)CC(C)(C)Cn1c(CCc2ccc(F)cc2)nc2cc(/C=C/C(=O)NO)ccc21` [Compound 84] it was 54 nM. For the compound `CN(C)CC(C)(C)Cn1c(CCc2cccnc2)nc2cc(/C=C/C(=O)NO)ccc21` [Compound 86, N-Hydroxy-3-[1-(3-Dimethylamino-2,2-dimethyl-propyl)-2-(2-pyridin-3-yl-ethyl)-1H-benzimidazol-5-yl]acrylamide], the GI50 in the assay on Colo205 (Homo sapiens, COLO 205) was 13100 nM. Take `COc1cc(Cn2c(CCc3ccccc3)nc3cc(C4CC4C(=O)NO)ccc32)cc(OC)c1OC` (stereo not drawn) [Compound 88, 2-[2-Phenethyl-1-(3,4,5-trimethoxy-benzyl)-1H-benzimidazol-5-yl]-cyclopropanecarboxylic acid hydroxyamide]: on HDAC1 enzyme, the half-maximal inhibitory concentration (IC50) stood at 297 nM. The compound further showed a GI50 in the assay on Colo205 (Homo sapiens, COLO 205, 96 h) of 1260 nM. As for `O=C(/C=C/c1ccc2c(c1)ncn2CCN1CCCCC1)NO` [Compound 90], the IC50 on HDAC1 enzyme was 166 nM.
